Activity calls are given as the source filed them.
Key:
[1] = target: Dual specificity protein phosphatase 3 (Homo sapiens, UniProt P51452); assay: SAR VHR1 Fluorescent Assay for In Vitro dose response studies Set 3. [Related pubchem assays (depositor defined):AID1654, AID1661, AID1878]; type: functional
Phospholipase D2 [2] = target: T1, Phospholipase D2 (Homo sapiens, UniProt O14939); assay: PLD2 inhibitor potency in cells, dose response (AID 602147); type: functional;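 further: cellular assay in HEK293 cells overexpressing GFP-tagged PLD2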
Phospholipase D1 [3] = target: T2, Phospholipase D1 (Homo sapiens, UniProt Q13393); assay: PLD1 inhibitor potency in cells, dose response (AID 602151); type: functional;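 further: cellular PLD1 assay in Calu-1 cells stimulated with PMA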
Hexokinase-1 = Hexokinase-1 (Homo sapiens, UniProt P19367); assay: HK1 enzyme inhibition by HKDC1 hits, SAR follow-up, selectivity assay for HKDC1 inhibitor project, biochemical, set 2, resazurin fluorescence coupled readout (AID 588356); type: functional
Hexokinase HKDC1 = target: T3, Hexokinase HKDC1 (Homo sapiens, UniProt Q2TB90); assay: HKDC1 hexokinase inhibitors, SAR follow-up, biochemical, set 2 (AID 588355); type: functional
T3 sequence (Q2TB90 whole entry): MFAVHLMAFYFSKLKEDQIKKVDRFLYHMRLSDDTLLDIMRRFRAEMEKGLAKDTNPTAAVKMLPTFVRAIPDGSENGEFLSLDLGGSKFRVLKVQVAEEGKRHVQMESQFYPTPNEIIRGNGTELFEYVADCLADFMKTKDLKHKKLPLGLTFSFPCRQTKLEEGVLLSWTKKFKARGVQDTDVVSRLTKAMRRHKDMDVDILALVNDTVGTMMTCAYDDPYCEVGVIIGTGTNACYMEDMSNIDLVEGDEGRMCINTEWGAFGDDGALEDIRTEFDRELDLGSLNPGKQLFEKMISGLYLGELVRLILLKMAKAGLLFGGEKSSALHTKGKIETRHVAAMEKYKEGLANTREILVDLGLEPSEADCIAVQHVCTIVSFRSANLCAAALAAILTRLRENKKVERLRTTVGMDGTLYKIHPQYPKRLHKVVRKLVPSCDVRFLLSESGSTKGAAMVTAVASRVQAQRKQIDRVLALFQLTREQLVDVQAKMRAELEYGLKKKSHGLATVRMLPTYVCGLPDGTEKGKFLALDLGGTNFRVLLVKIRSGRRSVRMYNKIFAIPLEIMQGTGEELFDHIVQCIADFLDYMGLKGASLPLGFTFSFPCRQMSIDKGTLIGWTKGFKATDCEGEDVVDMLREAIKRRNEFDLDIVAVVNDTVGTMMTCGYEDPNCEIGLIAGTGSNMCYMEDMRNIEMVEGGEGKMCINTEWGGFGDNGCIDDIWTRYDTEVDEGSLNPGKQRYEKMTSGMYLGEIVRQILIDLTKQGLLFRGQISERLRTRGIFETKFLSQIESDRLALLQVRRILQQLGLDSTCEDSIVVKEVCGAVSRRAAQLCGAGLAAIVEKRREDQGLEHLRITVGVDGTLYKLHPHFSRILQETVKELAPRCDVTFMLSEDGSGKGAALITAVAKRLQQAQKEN

Phospholipase D2 [4] = target: T1, Phospholipase D2; assay: PLD2 purified enzyme concentration response. [Related pubchem assays (depositor defined):AID588854]; type: functional
Phospholipase D1 [5] = target: T2, Phospholipase D1; assay: PLD1 purified enzyme concentration response. [Related pubchem assays (depositor defined):AID588854]; type: functional
H4 = assay: Inhibitors of Prion Protein 5' UTR mRNA Measured in Cell-Based System Using Plate Reader - 2078-01_Inhibitor_Dose_DryPowder_Activity. [Related pubchem assays (depositor defined):AID488894]; type: functional; settings: Homo sapiens
INS1 = assay: protection of INS-1E cells from cytokine death, dose response, ATP luminescence, dry powder (AID 488844); type: functional, cell-based; settings: Rattus norvegicus

T2 sequence (Q13393 whole entry): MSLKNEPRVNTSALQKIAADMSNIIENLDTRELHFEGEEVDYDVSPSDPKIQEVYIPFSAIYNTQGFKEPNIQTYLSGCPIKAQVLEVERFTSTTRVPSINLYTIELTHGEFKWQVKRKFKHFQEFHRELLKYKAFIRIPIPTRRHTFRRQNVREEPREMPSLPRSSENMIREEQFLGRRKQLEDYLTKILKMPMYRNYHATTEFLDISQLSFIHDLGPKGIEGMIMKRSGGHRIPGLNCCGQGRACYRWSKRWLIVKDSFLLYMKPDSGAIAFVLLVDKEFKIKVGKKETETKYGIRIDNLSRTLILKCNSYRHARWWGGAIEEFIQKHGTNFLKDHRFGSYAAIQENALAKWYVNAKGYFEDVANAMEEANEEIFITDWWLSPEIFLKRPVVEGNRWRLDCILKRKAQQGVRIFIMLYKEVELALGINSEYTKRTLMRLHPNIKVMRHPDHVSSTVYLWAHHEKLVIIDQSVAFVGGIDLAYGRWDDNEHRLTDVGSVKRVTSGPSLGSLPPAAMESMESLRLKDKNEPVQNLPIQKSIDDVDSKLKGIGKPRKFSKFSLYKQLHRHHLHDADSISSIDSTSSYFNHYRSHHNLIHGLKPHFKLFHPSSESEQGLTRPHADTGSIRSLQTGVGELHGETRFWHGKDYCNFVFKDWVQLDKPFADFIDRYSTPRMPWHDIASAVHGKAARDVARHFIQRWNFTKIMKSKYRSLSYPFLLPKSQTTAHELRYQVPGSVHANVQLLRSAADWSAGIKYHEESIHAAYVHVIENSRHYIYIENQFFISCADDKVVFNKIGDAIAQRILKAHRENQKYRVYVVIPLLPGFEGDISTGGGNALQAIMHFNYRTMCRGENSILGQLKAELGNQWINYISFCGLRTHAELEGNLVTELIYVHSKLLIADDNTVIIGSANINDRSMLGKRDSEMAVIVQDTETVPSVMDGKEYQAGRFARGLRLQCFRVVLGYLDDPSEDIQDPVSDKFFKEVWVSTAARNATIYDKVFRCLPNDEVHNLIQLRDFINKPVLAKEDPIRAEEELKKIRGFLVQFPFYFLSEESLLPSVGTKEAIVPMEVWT
T1 sequence (O14939 whole entry): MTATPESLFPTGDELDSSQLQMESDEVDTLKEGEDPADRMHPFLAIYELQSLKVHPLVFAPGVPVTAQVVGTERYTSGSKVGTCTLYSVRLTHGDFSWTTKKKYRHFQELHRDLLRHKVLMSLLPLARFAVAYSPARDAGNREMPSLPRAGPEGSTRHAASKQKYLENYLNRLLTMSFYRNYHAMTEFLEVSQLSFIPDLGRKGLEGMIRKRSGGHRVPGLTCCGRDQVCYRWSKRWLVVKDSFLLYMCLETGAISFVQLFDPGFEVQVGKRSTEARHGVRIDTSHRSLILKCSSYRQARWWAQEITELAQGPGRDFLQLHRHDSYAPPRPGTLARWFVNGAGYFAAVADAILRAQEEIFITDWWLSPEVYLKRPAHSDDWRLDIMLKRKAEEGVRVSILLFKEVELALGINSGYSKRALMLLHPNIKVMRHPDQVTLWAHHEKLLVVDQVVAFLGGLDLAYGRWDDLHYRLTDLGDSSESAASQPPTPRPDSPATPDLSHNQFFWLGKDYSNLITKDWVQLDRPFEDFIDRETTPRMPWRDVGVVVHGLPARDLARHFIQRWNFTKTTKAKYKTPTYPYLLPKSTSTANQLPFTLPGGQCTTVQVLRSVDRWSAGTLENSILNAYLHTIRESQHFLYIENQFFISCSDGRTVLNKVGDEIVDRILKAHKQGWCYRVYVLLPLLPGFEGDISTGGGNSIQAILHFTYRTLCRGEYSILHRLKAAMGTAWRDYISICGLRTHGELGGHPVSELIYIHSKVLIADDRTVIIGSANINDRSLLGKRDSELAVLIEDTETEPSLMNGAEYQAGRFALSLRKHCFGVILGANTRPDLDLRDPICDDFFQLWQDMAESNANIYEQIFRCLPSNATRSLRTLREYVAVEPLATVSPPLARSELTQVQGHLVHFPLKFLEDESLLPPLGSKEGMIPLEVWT
Dual specificity protein phosphatase 3, sequence (P51452 whole entry): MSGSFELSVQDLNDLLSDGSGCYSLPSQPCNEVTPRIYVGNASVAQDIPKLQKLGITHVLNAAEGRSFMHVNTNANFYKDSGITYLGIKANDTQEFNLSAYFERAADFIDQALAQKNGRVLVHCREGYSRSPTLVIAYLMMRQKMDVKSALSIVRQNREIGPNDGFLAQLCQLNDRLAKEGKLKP
Hexokinase-1, sequence (P19367 whole entry): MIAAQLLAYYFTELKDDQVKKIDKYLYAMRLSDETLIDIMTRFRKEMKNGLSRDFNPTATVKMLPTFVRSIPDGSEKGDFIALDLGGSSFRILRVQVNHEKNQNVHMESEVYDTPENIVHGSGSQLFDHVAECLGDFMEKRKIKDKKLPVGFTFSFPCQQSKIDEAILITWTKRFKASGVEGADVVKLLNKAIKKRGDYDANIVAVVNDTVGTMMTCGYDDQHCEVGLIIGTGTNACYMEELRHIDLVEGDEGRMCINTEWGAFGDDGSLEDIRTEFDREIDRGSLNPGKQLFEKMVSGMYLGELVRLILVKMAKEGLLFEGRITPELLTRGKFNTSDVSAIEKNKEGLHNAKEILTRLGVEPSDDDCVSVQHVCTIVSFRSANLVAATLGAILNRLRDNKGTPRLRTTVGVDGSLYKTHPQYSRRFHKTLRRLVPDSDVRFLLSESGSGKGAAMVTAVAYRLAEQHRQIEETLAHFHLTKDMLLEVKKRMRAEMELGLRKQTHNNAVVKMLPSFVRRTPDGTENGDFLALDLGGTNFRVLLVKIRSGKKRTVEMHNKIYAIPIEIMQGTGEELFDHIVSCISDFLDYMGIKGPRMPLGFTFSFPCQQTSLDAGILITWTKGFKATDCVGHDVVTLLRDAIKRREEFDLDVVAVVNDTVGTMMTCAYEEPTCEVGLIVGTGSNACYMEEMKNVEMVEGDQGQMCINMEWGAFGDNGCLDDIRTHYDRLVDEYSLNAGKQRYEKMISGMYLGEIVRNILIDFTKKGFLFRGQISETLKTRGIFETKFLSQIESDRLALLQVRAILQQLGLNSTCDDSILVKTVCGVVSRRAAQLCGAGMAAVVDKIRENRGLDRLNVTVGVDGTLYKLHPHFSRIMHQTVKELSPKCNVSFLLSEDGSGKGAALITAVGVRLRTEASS

COc1ccc(-c2nnc(Nc3nc4c(F)cccc4s3)o2)c(OC)c1
IC50 [1]: 13.7 µM (active)

C[C@@H](CN1CCC2(CC1)C(=O)NCN2c1ccc(F)c(F)c1)NC(=O)c1cc2cc(F)ccc2[nH]1
IC50 (Phospholipase D2 [2]): 0.032 µM (active)
IC50 (Phospholipase D1 [3]): 0.005 µM (active)

CC(=O)NC1C(=O)N(CCN2CCOCC2)c2ccccc21 (centres undefined)
IC50 (Hexokinase-1): > 80 µM (inactive)
IC50 (Hexokinase HKDC1): > 80 µM (inactive)

O=C(NCCN1CCC2(CC1)C(=O)NCN2c1ccc(Br)cc1)c1cc2cc(F)ccc2[nH]1
IC50 (Phospholipase D2 [4]): 0.028 µM (active)
IC50 (Phospholipase D1 [5]): 5 µM (active)

COc1ccc(NC=C2C(=O)c3ccccc3C2=O)c(OC)c1
AC50 (H4): 1.75 µM (active)

C[C@@H]1CN([C@@H](C)CO)C(=O)c2cccc(NC(=O)Nc3ccccc3)c2O[C@H]1CN(C)S(=O)(=O)c1ccc(F)cc1
AC50 (INS1): 61.3 µM (active)
